Measurements from patent US20260258397A1, “REAGENTS AND SYSTEMS FOR […]” (priority 2023, published 2026).

Tests used:
[1] = system: PYR1 mutant receptors (ligand-dependent binding to HAB1); experiment: Yeast two-hybrid screens of PYR1 DSM and CB-S libraries for cannabinoid sensors
PYR1^WIN-M = biological target: T1, PYR1^WIN-M (Arabidopsis thaliana, UniProt O49686, A160I/D26G/F159A/H60P/K59Q/N90S/Y23H); experiment: PYR1 ELISA-like plate assay, immobilized PYR1^WIN-M with biotinylated ΔN-HAB1^T+; assay type: binding; conditions: PYR1^WIN-M ELISA-like format
T1 construct: made in house; host or cells: E. coli
Protocol: PYR1 was immobilized overnight in clear plates, blocked with KPL milk diluent in buffer CBS ^17 (CBSM). All binding reactions were performed using CBSM. Detection was performed via binding a streptavidin-HRP conjugate to biotinylated ΔN-HAB1^T+ followed by incubation with a commercial TMB reagent. Lower limits of detection (LODs) were determined by linear regression of the response data in the low linear range using the formula LOD=3σy/m, where m is the slope of the response line and σy is the standard error of the y intercept using data combined from biological replicates.
Unconjugated 6×His-MBP-PYR1 variants were immobilized to Microlon clear plates (655081) using 100 μL of CBS without pH modification, at a protein concentration of 100 μg mL^−1, or 1.57 AM at 4° C. overnight. Wells assigned as no PYR controls received only CBS. Plates were sealed using Microseal B adhesive sealers (BioRad MSB-1001). […] The pellet was stored on ice until the blocked and washed plates were ready to receive the binding reactions. ΔN-HAB1^T+ was exchanged into CBSM with 1 mM DTT and 1 mM TCEP (CBSM++) using Zeba™ spin desalting columns (Thermo) were equilibrated with CBSM++. ΔN-HAB1^T+ was diluted to 10× the final binding reaction concentration and was immediately added to the pre-assembled assays in PCR plates, which were mixed by pipetting and transferred to the washed, blocked Microlon plates. […]

T1 sequence (O49686 whole entry Y23H/D26G/K59Q/H60P/N90S/F159A/A160I, other chains not shown): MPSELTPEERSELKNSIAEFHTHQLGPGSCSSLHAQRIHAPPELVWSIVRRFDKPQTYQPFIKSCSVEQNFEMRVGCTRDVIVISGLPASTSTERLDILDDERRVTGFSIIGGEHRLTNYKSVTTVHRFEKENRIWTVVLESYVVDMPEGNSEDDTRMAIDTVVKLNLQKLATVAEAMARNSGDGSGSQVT

## Cc1c(C(=O)c2cccc3ccccc23)c2cccc3c2n1[C@H](CN1CCOCC1)CO3 [WIN 55,212-2]
[1]; CB-S2 library screened on 50 nM, 25 nM: JWH-015 PYR1 K59N/Y120H/F159L/A160G, JWH-016 V81I/Y120G/F159L/A160G, JWH-072 E4G/K59N/Y120H/F159L/A160G, WIN 55,212 E4G/Y23H/D26G/K59Q/F159A/A160I
  affinity of improved sensors: low nM affinity
[1]; DSM library selected on 30 μM ligand, hits for 'pM concentrations' as printed
  outcome of DSM library Y2H selection: double mutant hits
PYR1^WIN-M
  average LOD from two biological replicates: 0.21 ng/ml
